Laboratory results reported in patent US8575200B2, “Pyridin-2-yl derivatives as immunomodulating agents” (Actelion Pharmaceuticals Ltd, priority 2008, dated 2013).
Marks after values point to notes of the source that are not given here.

Experiments:
circulating lymphocytes = test: Assessment of in vivo efficacy: circulating lymphocytes after oral administration; parameters: species or system normotensive male Wistar rats; conditions: compared to vehicle group
Description: The efficacy of the compounds of Formula (I) is assessed by measuring the circulating lymphocytes after oral administration of 3 to 30 mg/kg of a compound of Formula (I) to normotensive male Wistar rats. The animals are housed in climate-controlled conditions with a 12 h-light/dark cycle, and have free access to normal rat chow and drinking water. Blood is collected before and 3, 6 and 24 h after drug administration. Full blood is subjected to hematology using Advia Hematology system (Bayer Diagnostics, Zürich, Switzerland).
All data are presented as mean±SEM. Statistical analyses are performed by analysis of variance (ANOVA) using Statistica (StatSoft) and the Student-Newman-Keuls procedure for multiple comparisons. The null hypothesis is rejected when p<0.05.
Lymphocyte counts 6 h after oral administration have been measured for 7 of the exemplified compounds (Table 2) and are in the range of −35% to −74% with an average of −64%.

[1] = biological target: recombinant human S1P1 receptor (Homo sapiens, UniProt P21453); test: GTPγS assay to determine EC50 values; format: biochemical; conditions: 35S-GTPγS binding
Description: GTPγS binding assays are performed in 96 well microtiter plates (Nunc, 442587) in a final volume of 200 μl, using membrane preparations of CHO cells expressing recombinant human S1P1 receptor. Assay conditions are 20 mM Hepes (Fluka, 54461), 100 mM NaCl (Fluka, 71378), 5 mM MgCl2 (Fluka, 63064), 0.1% BSA (Calbiochem, 126609), 1 μM GDP (Sigma, G-7127), 2.5% DMSO (Fluka, 41644), […] ^35S-GTPγS (Amersham Biosciences, SJ1320). The pH is 7.4. Test compounds are dissolved and diluted in 100% DMSO and pre-incubated at room temperature for 30 min in 150 μl of the above assay buffer, in the absence of ^35S-GTPγS. After addition of 50 μl of ^35S-GTPγS, the assay is incubated for 1 h at rt. The assay is terminated by transfer of the reaction mixture to a Multiscreen plate (Millipore, MAHFC1H60) using a cell harvester from Packard Biosciences, and the plates are washed with ice-cold 10 mM Na2HPO4/NaH2PO4 (70%/30%), dried, sealed at the bottom and, after addition of 25 μl MicroScint20 (Packard Biosciences, order #6013621), sealed on the top. Membrane-bound ^35S-GTPγS is measured with a TopCount from Packard Biosciences.
EC50 is the concentration of agonist inducing 50% of the maximal specific ^35S-GTPγS binding. Specific binding is determined by subtracting non-specific binding from maximal binding. Maximal binding is the amount of cpm bound to the Multiscreen plate in the presence of 10 μM of S1P. Non-specific binding is the amount of binding in the absence of an agonist in the assay.

[2] = 6 h after oral administration of 10 mg/kg to male Wistar rats
[3] = membrane preparations of CHO cells expressing recombinant human S1P1 receptor, agonistic activity

Chain of recombinant human S1P1 receptor (P21453 whole entry): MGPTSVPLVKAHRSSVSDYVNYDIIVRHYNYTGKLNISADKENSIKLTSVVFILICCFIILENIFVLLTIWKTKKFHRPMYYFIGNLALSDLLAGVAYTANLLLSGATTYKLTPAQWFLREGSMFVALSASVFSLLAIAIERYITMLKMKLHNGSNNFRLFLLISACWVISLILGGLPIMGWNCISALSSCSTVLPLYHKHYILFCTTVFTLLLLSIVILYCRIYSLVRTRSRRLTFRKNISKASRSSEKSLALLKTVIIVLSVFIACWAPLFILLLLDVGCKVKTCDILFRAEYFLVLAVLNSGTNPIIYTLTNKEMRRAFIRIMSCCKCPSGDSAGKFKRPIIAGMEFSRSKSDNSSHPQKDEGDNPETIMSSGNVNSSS

| SMILES | EC50 [1, 3] [nM] | also measured |
| --- | --- | --- |
| CCc1cc(-c2noc(-c3cc(C)c(CC(C)C)cn3)n2)cc(C)c1OC[C@@H](O)CNC(=O)CO [Example 36, N—((S)-3-{2-ethyl-4-[5-(5-isobutyl-4-methyl-pyridin-2-yl)-[1,2,4]oxadiazol-3-yl]-6-methyl-phenoxy}-2-hydroxy-propyl)-2-hydroxy-acetamide] | – | Lymphocyte counts (circulating lymphocytes; [2]): −74% |
| CCc1cc(-c2noc(-c3cc(OC)cc(CC(C)C)n3)n2)cc(C)c1OC[C@@H](O)CNC(=O)CO [Example 17, N—((S)-3-{2-ethyl-4-[5-(6-isobutyl-4-methoxy-pyridin-2-yl)-[1,2,4]oxadiazol-3-yl]-6-methyl-phenoxy}-2-hydroxy-propyl)-2-hydroxy-acetamide] | 2.3 | Lymphocyte counts (circulating lymphocytes; [2]): −66% |
| CCC(CC)c1cc(OC)cc(-c2nc(-c3cc(C)c(OC[C@@H](O)CNC(=O)CO)c(C)c3)no2)n1 [Example 70, N—[(S)-3-(4-{5-[6-(1-ethyl-propyl)-4-methoxy-pyridin-2-yl]-[1,2,4]oxadiazol-3-yl}-2,6-dimethyl-phenoxy)-2-hydroxy-propyl]-2-hydroxy-acetamide] | 2.8 | – |
| CCc1cc(-c2nnc(-c3cc(C)c(CC(C)C)cn3)o2)cc(C)c1OC[C@@H](O)CN [Example 43] | – | EC50 ([1]; membranes of CHO cells expressing recombinant human S1P1 receptor): > 10000 nM |
| CCc1cc(-c2nc(-c3cc(C)c(CC(C)C)cn3)no2)cc(C)c1OC[C@@H](O)CNC(=O)CO [Example 74, N-((2S)-3-{2-Ethyl-4-[3-(5-isobutyl-4-methyl-pyridin-2-yl)-[1,2,4]oxadiazol-5-yl]-6-methyl-phenoxy}-2-hydroxy-propyl)-2-hydroxy-acetamide] | 9 | – |
| CCc1cc(-c2noc(-c3cc(C)c(CC(C)C)cn3)n2)cc(C)c1OC[C@H](O)CO [Example 33, (R)-3-{2-ethyl-4-[5-(5-isobutyl-4-methyl-pyridin-2-yl)-[1,2,4]oxadiazol-3-yl]-6-methyl-phenoxy}-propane-1,2-diol] | 7.2 | – |
| COc1cc(CC(C)C)nc(-c2nc(-c3cc(C)c(OC[C@@H](O)CNC(=O)CO)c(C)c3)no2)c1 [Example 10] | 2.7 | – |
| CCc1cc(-c2noc(-c3cc(C)c(CC(C)C)cn3)n2)cc(C)c1OC[C@@H](O)CO [Example 34, (S)-3-{2-ethyl-4-[5-(5-isobutyl-4-methyl-pyridin-2-yl)-[1,2,4]oxadiazol-3-yl]-6-methyl-phenoxy}-propane-1,2-diol] | 9.1 | Lymphocyte counts (circulating lymphocytes; [2]): −70% |
| CCc1cc(-c2noc(-c3cc(CC(C)C)cc(C)n3)n2)cc(C)c1OC[C@@H](O)CNC(=O)CO [Example 5, N—((S)-3-{2-Ethyl-4-[5-(4-isobutyl-6-methyl-pyridin-2-yl)-[1,2,4]oxadiazol-3-yl]-6-methyl-phenoxy}-2-hydroxy-propyl)-2-hydroxy-acetamide] | – | Lymphocyte counts (circulating lymphocytes; [2]): −67% |
| CCC(CC)c1cc(OC)cc(-c2nc(-c3cc(C)c(OC[C@@H](O)CNC(=O)CO)c(Cl)c3)no2)n1 [Example 71, N—[(S)-3-(2-chloro-4-{5-[6-(1-ethyl-propyl)-4-methoxy-pyridin-2-yl]-[1,2,4]oxadiazol-3-yl}-6-methyl-phenoxy)-2-hydroxy-propyl]-2-hydroxy-acetamide] | 0.8 | – |
| CCc1cc(-c2noc(-c3cc(C)c(CC(C)C)cn3)n2)cc(C)c1CCC(=O)NCCC(=O)O [Example 40, 3-(3-{2-Ethyl-4-[5-(5-isobutyl-4-methyl-pyridin-2-yl)-[1,2,4]oxadiazol-3-yl]-6-methyl-phenyl}-propionylamino)-propionic acid] | 3.3 | Lymphocyte counts (circulating lymphocytes; [2]): −35% |
| CCc1cc(-c2noc(-c3cc(C)cc(CC(C)C)n3)n2)cc(C)c1OC[C@@H](O)CNC(=O)CO [Example 1, N—((S)-3-{2-Ethyl-4-[5-(6-isobutyl-4-methyl-pyridin-2-yl)-[1,2,4]oxadiazol-3-yl]-6-methyl-phenoxy}-2-hydroxy-propyl)-2-hydroxy-acetamide] | – | Lymphocyte counts (circulating lymphocytes; [2]): −74% |
| CCC(CC)c1cc(OC)cc(-c2nc(-c3cc(C)c(OC[C@@H](O)CNC(=O)CO)c(OC)c3)no2)n1 [Example 72, N—[(S)-3-(4-{5-[6-(1-ethyl-propyl)-4-methoxy-pyridin-2-yl]-[1,2,4]oxadiazol-3-yl}-2-methoxy-6-methyl-phenoxy)-2-hydroxy-propyl]-2-hydroxy-acetamide] | 8.8 | – |
| CCc1cc(-c2noc(-c3cc(OC)cc(C(CC)CC)n3)n2)cc(C)c1OC[C@@H](O)CNC(=O)CO [Example 69, N—[(S)-3-(2-ethyl-4-{5-[6-(1-ethyl-propyl)-4-methoxy-pyridin-2-yl]-[1,2,4]oxadiazol-3-yl}-6-methyl-phenoxy)-2-hydroxy-propyl]-2-hydroxy-acetamide] | 3.1 | – |
| CCc1cc(-c2noc(-c3cc(C)c(CC(C)C)cn3)n2)cc(C)c1OCCNC(=O)CO [Example 51, N-(2-{2-Ethyl-4-[5-(5-isobutyl-4-methyl-pyridin-2-yl)-[1,2,4]oxadiazol-3-yl]-6-methyl-phenoxy}-ethyl)-2-hydroxy-acetamide] | 8.8 | – |
| CCc1cc(-c2noc(-c3cc(C)cc(C(CC)CC)n3)n2)cc(C)c1OC[C@@H](O)CO [Example 62, (S)-3-(2-Ethyl-4-{5-[6-(1-ethyl-propyl)-4-methyl-pyridin-2-yl]-[1,2,4]oxadiazol-3-yl}-6-methyl-phenoxy)-propane-1,2-diol] | 2.2 | – |
| CCc1cc(-c2noc(-c3cc(C)c(CC(C)C)cn3)n2)cc(C)c1OCCNCCC(=O)O [Example 50, 3-(2-{2-Ethyl-4-[5-(5-isobutyl-4-methyl-pyridin-2-yl)-[1,2,4]oxadiazol-3-yl]-6-methyl-phenoxy}-ethylamino)-propionic acid] | 5.1 | – |
| CCc1cc(-c2noc(-c3cc(C)c(CC(C)C)cn3)n2)cc(C)c1OC[C@@H](O)CNCCO [Example 58, 1-{2-Ethyl-4-[5-(5-isobutyl-4-methyl-pyridin-2-yl)-[1,2,4]oxadiazol-3-yl]-6-methyl-phenoxy}-3-((2S)-2-hydroxy-ethylamino)-propan-2-ol] | 11.2 | – |
| CCc1cc(-c2noc(-c3cc(C)c(CC(C)C)cn3)n2)cc(C)c1OC(CO)CO [Example 55, 2-{2-Ethyl-4-[5-(5-isobutyl-4-methyl-pyridin-2-yl)-[1,2,4]oxadiazol-3-yl]-6-methyl-phenoxy}-propane-1,3-diol] | 4.7 | Lymphocyte counts (circulating lymphocytes; 3 h after administration, oral 10 mg/kg, male Wistar rats): −65%* |
| CCc1cc(-c2noc(-c3cc(C)c(CC(C)C)cn3)n2)cc(C)c1OC[C@@H](O)CNS(=O)(=O)CC [Example 59, Ethanesulfonic acid ((2S)-3-{2-ethyl-4-[5-(5-isobutyl-4-methyl-pyridin-2-yl)-[1,2,4]oxadiazol-3-yl]-6-methyl-phenoxy}-2-hydroxy-propyl)-amide] | 11.9 | – |
| CCc1cc(-c2noc(-c3cc(C)c(CC(C)C)cn3)n2)cc(C)c1OC[C@@H](O)CNCCC(=O)O [Example 61, 3-((2S)-3-{2-Ethyl-4-[5-(5-isobutyl-4-methyl-pyridin-2-yl)-[1,2,4]oxadiazol-3-yl]-6-methyl-phenoxy}-2-hydroxy-propylamino)-propionic acid] | 2.3 | – |
| CCC(CC)c1cc(OC)cc(-c2nc(-c3cc(C)c(OC[C@@H](O)CO)c(Cl)c3)no2)n1 [Example 65, (S)-3-(2-chloro-4-{5-[6-(1-ethyl-propyl)-4-methoxy-pyridin-2-yl]-[1,2,4]oxadiazol-3-yl}-6-methyl-phenoxy)-propane-1,2-diol] | 9.4 | – |
